ChEMBL document CHEMBL1201862, “PubChem BioAssay data set” (2004)
Activity calls are given as the source filed them.

Assays:
[1] = biological target: Mitogen-activated protein kinase 10 (Homo sapiens, UniProt P53779); assay: Dose response biochemical screening assay for inhibitors of c-Jun N-Terminal Kinase 3 (JNK3). [Related pubchem assays: 746 ]
cells [2] = assay: cells
Major prion protein = Major prion protein (Homo sapiens, UniProt P04156); type: functional, cell-based
[3] = biological target: G-protein coupled receptor 183 (Homo sapiens, UniProt P32249); assay: SAR confirmation of small molecule antagonists of the EBI2 receptor via a luminescent beta-arrestin assa.; type: functional
[4] = HEK293T cell cytotoxicity, dose response, cytotoxicity control, CellTiter-Glo luminescence, cherry-picked samples, set 4 (AID 743441); type: functional, cell-based; settings: HEK293
[5] = Luminescence Cell-Based Dose Response HTS to Identify Inhibitors of 5'UTR Stem-Loop Driven Prion Protein mRNA Translation in H4 Neuroglioblastoma Cells. [Related pubchem assays: 1827 (Project Summary), 1813 (Primary HTS)]; type: functional
[6] = inhibitors of SNCA 5'UTR-driven reporter translation, confirmation, H4 neuroglioma cells, luminescence (AID 1988); type: functional, cell-based
[7] = biological target: DNA repair and recombination protein RAD54-like (Homo sapiens, UniProt Q92698); assay: inhibitors of human RAD54 branch migration, confirmation, biochemical, fluorescence, cherry-picked samples, dose series (AID 651657); type: functional
[8] = biological target: SWI/SNF-related matrix-associated actin-dependent regulator of chromatin subfamily A member 2 (Homo sapiens, UniProt P51531); assay: Luminescence-based cell-based high throughput dose response assay to identify activators of the function of SWI/SNF related, matrix associated, actin dependent regulator of chromatin, subfamily a, member 2 (SMARCA2, BRM).; type: functional
[9] = biological target: T1, Heat shock factor protein 1 (Mus musculus, UniProt P38532); assay: HSF1 potentiators in luciferase reporter cells, confirmation, cell-based, NIH3T3, luminescence, dose retest (AID 435004); type: functional;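 also: stress induced by proteasome inhibitor MG132 added 30 min after compound; luciferase reporter driven by HSF1 response element in NIH3T3 cells; actives raise luminescence as potentiators of the MG132 stress response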
T1 sequence (P38532 whole entry): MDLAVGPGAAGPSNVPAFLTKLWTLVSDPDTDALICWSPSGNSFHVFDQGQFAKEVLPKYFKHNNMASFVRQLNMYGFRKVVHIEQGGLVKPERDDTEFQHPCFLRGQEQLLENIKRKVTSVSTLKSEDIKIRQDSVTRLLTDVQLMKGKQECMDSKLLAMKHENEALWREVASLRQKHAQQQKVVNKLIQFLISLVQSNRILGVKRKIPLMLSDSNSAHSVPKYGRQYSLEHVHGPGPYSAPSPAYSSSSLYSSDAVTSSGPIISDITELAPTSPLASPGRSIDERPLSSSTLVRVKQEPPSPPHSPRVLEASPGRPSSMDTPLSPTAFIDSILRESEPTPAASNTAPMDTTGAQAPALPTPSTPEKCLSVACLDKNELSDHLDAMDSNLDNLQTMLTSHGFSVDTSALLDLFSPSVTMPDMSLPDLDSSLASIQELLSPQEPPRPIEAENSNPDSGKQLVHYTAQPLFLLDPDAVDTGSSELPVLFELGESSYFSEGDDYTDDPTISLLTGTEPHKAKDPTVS

[10] = cytotoxicity in A549 cells, dose response, cytotoxicity control, cell-based, CellTiter-Glo luminescence, cherry-pick (AID 743484); type: functional
[11] = Counterscreen for activators of the function of SWI/SNF related, matrix associated, actin dependent regulator of chromatin, subfamily a, member 2 (SMARCA2, BRM): Luminescence-based cell-based high throughput dose response assay to identify non-selective compounds using the VP16 reporter assay.; type: functional
[12] = P. falciparum ATP4 D1247Y mutant growth inhibitors, dose response, NITD609-resistant line, SYBR Green, dry powder (AID 1159571); type: functional, cell-based;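 also: parasites synchronized at ring stage by sorbitol before testing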
[13] = P. falciparum Dd2 growth inhibitors, dose response, SYBR Green, cherry-picked samples (AID 1159567); type: functional, cell-based
[14] = P. falciparum 3D7-ScDHODH growth inhibitors, dose response, SYBR Green, dry powder samples (AID 1159570); type: functional, cell-based;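 also: parasite growth measured after 72 hours of compound exposure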
[15] = P. falciparum Dd2 growth inhibitors, dose response, SYBR Green, dry powder samples (AID 1159566); type: functional, cell-based;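 also: potency for growth inhibition with lower SYBR green DNA signal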
[16] = HepG2 cell cytotoxicity, dose response, cytotoxicity control, plate reader, dry powder samples (AID 1159569); type: functional, cell-based;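 also: inhibitor potency with signal falling toward the positive control level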
[17] = biological target: Calcium-dependent protein kinase 1 (Plasmodium falciparum, UniProt P62344); assay: PfCDPK1 kinase inhibitors, biochemical, TCAMS library (AID 1159585); type: functional
Kallikrein-7 = Kallikrein-7 (Homo sapiens, UniProt P49862); assay: Fluorescence Intensity-based biochemical primary high throughput dose response assay to identify activators of kallikrein-7 (K7) zymogen.
[18] = biological target: E3 ubiquitin-protein ligase Mdm2 (Homo sapiens, UniProt Q00987); assay: enhancers of MDM2-luciferase reporter signal, concentration-effect titration, project on inhibitors of MDM2 ubiquitin ligase, cellular assay, luminescent readout, 384-well plate format (AID 1394); type: functional;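 also: MDM2 E3 inhibitors raise luminescence so EC50 is for signal enhancement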
[19] = biological target: Glutathione-S-transferase (Schistosoma japonicum, UniProt Q26513); assay: biotin-GST/anti-GST TR-FRET signal inhibitors, dose response, artefact control for Vif-APOBEC3G degradation inhibitor project, biochemical (AID 1117362); type: functional
[20] = Luminescence-based cell-based high throughput dose response assay to identify activators of the DAF-12 from the parasite S. stercoralis (ssDAF-12).; type: functional
[21] = biological target: Oxysterols receptor LXR-beta (Homo sapiens, UniProt P55055); assay: LXR agonists, Gal4 luciferase reporter, dose response, counter-screen for ssDAF-12 agonist project, cell-based, luminescence, HEK293, S. stercoralis campaign (AID 720737); type: functional; settings: read-out: IC50 (the source's name)
Transthyretin = Transthyretin (Homo sapiens, UniProt P02766); assay: Luminescence-based cell-based high throughput dose response assay to identify activators of Transthyretin (TTR) transcription.; type: functional
[22] = biological target: RNA-editing ligase 1, mitochondrial (Trypanosoma brucei brucei, UniProt P86926); assay: TbREL1 ligase inhibitors, dose response, biochemical, fluorescence, Trypanosoma brucei (AID 1117295); type: functional
[23] = A cytotoxicity screen of small molecule inhibitors of the PhoP region in Salmonella typhi identified in the primary screen. [Related pubchem assays: 1850, 1864, 1985 ]; type: functional
[24] = biological target: Sphingosine 1-phosphate receptor 2 (Homo sapiens, UniProt O95136); assay: Dose Response Cell Based Assay for Agonists of the S1P2 Receptor. [Related pubchem assays: 729, 736, 843 ]; type: functional
[25] = MITF Orthogonal Assay: SK-MEL-5 CTG Assay Measured in Cell-Based System Using Plate Reader - 2084-02_Inhibitor_Dose_DryPowder_Activity_Set5.; type: functional
[26] = SK-MEL-5 parental cell viability reduction, dose response, orthogonal assay for MITF inhibitor project, CellTiter-Glo luminescence, dry powder, set 8 (AID 651586); type: functional, cell-based
[27] = MITF Measured in Cell-Based System Using Plate Reader - 2084-01_Inhibitor_Dose_DryPowder_Activity_Set7.; type: functional
[28] = MITF Orthogonal Assay: MALME3 CTG Assay Measured in Cell-Based System Using Plate Reader - 2084-04_Inhibitor_Dose_DryPowder_Activity_Set6.; type: functional; settings: MALME-3
[29] = MITF Measured in Cell-Based System Using Plate Reader - 2084-01_Inhibitor_Dose_DryPowder_Activity_Set6.; type: functional
[30] = SK-MEL-5 parental line viability, dose response, MITF inhibitor project, cell-based, CellTiter-Glo, dry powder, set 6 (AID 624429); type: functional
[31] = MALME3 melanoma cell viability reduction, dose response, orthogonal assay for MITF inhibitor project, CellTiter-Glo luminescence, dry powder, set 5 (AID 651584); type: functional, cell-based; settings: MALME-3
[32] = TRPM1 promoter luciferase reporter signal decrease, dose response, MITF inhibitor project, cell-based, SK-MEL-5, dry powder, set 9 (AID 651588); type: functional
[33] = A375 melanoma cell viability loss, dose response, counter-screen for MITF inhibitor project, CellTiter-Glo luminescence, dry powder, set 4 (AID 624364); type: functional, cell-based; settings: A-375;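 also: A375 melanoma cells are MITF independent so this is a counter screen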
Phospholipase D1 = Phospholipase D1 (Homo sapiens, UniProt Q13393); assay: PLD1 Cellular Concentration Response Study.; type: functional
Phospholipase D2 = Phospholipase D2 (Homo sapiens, UniProt O14939); assay: PLD2 Cellular Concentration Response Study.; type: functional
[34] = CEM21 cell cytotoxicity, dose response, cytotoxicity control, plate reader, dry powder (AID 687026); type: functional, cell-based
[35] = HIV Env cell-cell fusion inhibitors, dose response, HIV entry, plate reader, dry powder (AID 687023); type: functional, cell-based
[36] = Dose-response inhibition of insulin secretion in a rat insulinoma line at 5 mM glucose (AID 1117331); type: functional, cell-based; settings: INS-1E
cells [37] = type: functional, cell-based; settings: INS-1E
Cytochrome P450 1A2 = biological target: T2, Cytochrome P450 1A2 (Homo sapiens, UniProt P05177);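 also: PubChem cytochrome P450 panel assay, CYP1A2 panel member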
T2 sequence (P05177 whole entry): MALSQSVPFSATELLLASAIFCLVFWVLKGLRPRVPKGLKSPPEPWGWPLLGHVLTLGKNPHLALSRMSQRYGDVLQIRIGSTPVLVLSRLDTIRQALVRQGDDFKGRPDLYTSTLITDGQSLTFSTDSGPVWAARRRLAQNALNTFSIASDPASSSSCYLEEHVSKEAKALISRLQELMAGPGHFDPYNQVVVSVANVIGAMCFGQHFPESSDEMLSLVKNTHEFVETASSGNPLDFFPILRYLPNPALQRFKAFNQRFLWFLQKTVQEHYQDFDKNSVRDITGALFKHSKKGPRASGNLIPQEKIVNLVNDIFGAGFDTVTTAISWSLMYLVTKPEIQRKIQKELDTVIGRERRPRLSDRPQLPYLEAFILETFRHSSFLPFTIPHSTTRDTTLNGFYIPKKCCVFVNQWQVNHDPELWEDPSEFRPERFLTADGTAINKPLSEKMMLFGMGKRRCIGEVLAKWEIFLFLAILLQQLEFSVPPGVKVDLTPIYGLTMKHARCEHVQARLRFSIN

O=C(O)CSc1ccc2ccccc2n1
IC50 [1]: > 93.1 µM (not active) | IC50 (cells [2]): > 138 µM (inactive) | IC50 (Major prion protein): 6.89 µM (active)

O=C(Cc1ccc(Br)cc1)N1CCN(C(=O)c2ccc(Cl)cc2)CC1
IC50 [3]: > 1 µM (inactive)

CCN(CC)CCn1c2ccccc2c2nc3ccc([N+](=O)[O-])cc3cc21
AC50 [4]: 5.85 µM (active) | EC50 [5]: > 120 µM (not active) | EC50 [6]: 8.22 µM (inconclusive) | AC50 [7]: 1.56 µM (active) | EC50 [8]: 7.55 µM (active) | EC50 [9]: 15.8 µM (active) | AC50 [10]: 39.6 µM (active) | EC50 [11]: > 91.2 µM (inactive)

CC(C)CC#Cc1ccc([C@@H]2[C@H](CO)N3CCCCN(S(=O)(=O)Cc4ccccc4)C[C@@H]23)cc1
AC50 [12]: 0.957 µM (active) | AC50 [13]: 2.3 µM (active) | AC50 [14]: 1.48 µM (active) | AC50 [15]: 0.805 µM (active) | AC50 [16]: 9.93 µM (active)

CC(C)(CN)c1nc(-c2ccc(Cl)c(O)c2)c(-c2ccnc(N)n2)[nH]1
IC50 [17]: 0.007 µM (active)

O=C1NC(C2CC3C=CC2C3)Nc2ccccc21 (stereo not drawn)
EC50 (Kallikrein-7): > 69.4 µM (inactive)

CN1C(C(=O)NCc2cccc(Br)c2)CC2Cn3c(nc4cc5ccccc5cc43)C21 (stereo not drawn)
EC50 [18]: 11.1 µM (not active)

O=C(O)C1Cc2ccccc2N2CCCC12 (stereo not drawn)
IC50 [19]: 16.3 µM (active)

c1ccc(SCc2nc3ccccc3s2)nc1
IC50 [20]: > 67.5 µM (inactive) | EC50 [21]: > 67.5 µM (inactive)

O=C(O)c1ccc(CSc2nnc(Cc3ccccc3)o2)cc1
EC50 (Transthyretin): > 167 µM (inactive)

C=CCNC1=NC(c2ccc(F)cc2)C(C(=O)OC)=C(C)N1Cc1ccccc1C(F)(F)F (stereo not drawn)
IC50 [22]: > 96.6 µM (inactive)

Cc1cc(Br)ccc1OCCCCNCCO
EC50 [23]: > 50 µM (active) | EC50 [24]: > 50 µM (not active)

NC1=C(NS(=O)(=O)c2ccc(Br)cc2)C(=O)c2ccccc2C1=O
AC50 [25]: > 70 µM (inactive) | AC50 [26]: > 70 µM (inactive) | AC50 [27]: 53.6 µM (active) | AC50 [28]: > 70 µM (inactive) | AC50 [29]: 41.5 µM (active) | AC50 [30]: > 70 µM (inactive) | AC50 [31]: > 70 µM (inactive) | AC50 [32]: > 70 µM (inactive) | AC50 [33]: > 70 µM (inactive)

O=C(NCCN1CCC2(CC1)C(=O)NCN2Cc1cccc(Cl)c1)c1ccc2ccccc2c1
IC50 (Phospholipase D1): 2.8 µM (active) | IC50 (Phospholipase D2): 0.25 µM (active)

CCOc1ccc(S(=O)(=O)NCc2ccncc2)cc1OCC
AC50 [34]: > 70 µM (inactive) | AC50 [35]: 0.562 µM (active)

CCN(CC)CCOCCOC(=O)C1(c2ccccc2)CCCC1 [CARBETAPENTANE]
IC50 [36]: 7.69 µM (inactive) | IC50 (cells [37]): > 33.3 µM (inactive) | AC50 (Cytochrome P450 1A2): 20 µM (inconclusive)
